17 molecules from US20090304692A1, “TRIAZINE COMPOUNDS AS PI3 KINASE AND MTOR INHIBITORS” (Wyeth, priority 2008, published 2009) can be followed below.

In one assay the target is PI3K-α (Homo sapiens, UniProt P42336). Put plainly: PI3K-alpha fluorescence polarization assay. The following applies: read-out: IC50 PI3Kα. In general terms: In fluorescence polarisation assays a small probe gives low polarisation when free and higher when bound to something large.
Assay [1] concerns human breast MDA-MB-361 tumor cell line. Put plainly: In vitro cell culture growth assay (MTS), MDA-MB-361. It counts as cell-based. The note with it: Homo sapiens, MTS cell growth assay, three days after drug treatment, MDA-MB-361 cells, read-out: IC50 MDA-MB-361.
In the next assay the target is PI3K-γ (Homo sapiens, UniProt P48736). As to the kind of experiment: PI3K-gamma fluorescence polarization assay. The following applies: read-out: IC50 PI3Kγ.
Assay [2] concerns human prostate PC3-mm2 tumor cell line. As to the kind of experiment: In vitro cell culture growth assay (MTS), PC3-mm2. Type of assay: cell-based. The note with it: Homo sapiens, PC3MM2, 72 h, MTS cell growth assay, three days after drug treatment, PC3-mm2 cells; read-out: IC50 PC3-mm2.
Another assay deals with Human mTOR (FLAG-TOR) (Homo sapiens, UniProt P42345). As to the kind of experiment: mTOR kinase assay (DELFIA format, purified enzyme). Type of assay: biochemical. The note with it: read-out: IC50 mTOR.

For orientation: IC50 means the concentration at which inhibition is half-maximal.

Read-outs that look alike come from different tables or passages of the source.

Chain of PI3K-γ (P48736 whole entry, species assumed): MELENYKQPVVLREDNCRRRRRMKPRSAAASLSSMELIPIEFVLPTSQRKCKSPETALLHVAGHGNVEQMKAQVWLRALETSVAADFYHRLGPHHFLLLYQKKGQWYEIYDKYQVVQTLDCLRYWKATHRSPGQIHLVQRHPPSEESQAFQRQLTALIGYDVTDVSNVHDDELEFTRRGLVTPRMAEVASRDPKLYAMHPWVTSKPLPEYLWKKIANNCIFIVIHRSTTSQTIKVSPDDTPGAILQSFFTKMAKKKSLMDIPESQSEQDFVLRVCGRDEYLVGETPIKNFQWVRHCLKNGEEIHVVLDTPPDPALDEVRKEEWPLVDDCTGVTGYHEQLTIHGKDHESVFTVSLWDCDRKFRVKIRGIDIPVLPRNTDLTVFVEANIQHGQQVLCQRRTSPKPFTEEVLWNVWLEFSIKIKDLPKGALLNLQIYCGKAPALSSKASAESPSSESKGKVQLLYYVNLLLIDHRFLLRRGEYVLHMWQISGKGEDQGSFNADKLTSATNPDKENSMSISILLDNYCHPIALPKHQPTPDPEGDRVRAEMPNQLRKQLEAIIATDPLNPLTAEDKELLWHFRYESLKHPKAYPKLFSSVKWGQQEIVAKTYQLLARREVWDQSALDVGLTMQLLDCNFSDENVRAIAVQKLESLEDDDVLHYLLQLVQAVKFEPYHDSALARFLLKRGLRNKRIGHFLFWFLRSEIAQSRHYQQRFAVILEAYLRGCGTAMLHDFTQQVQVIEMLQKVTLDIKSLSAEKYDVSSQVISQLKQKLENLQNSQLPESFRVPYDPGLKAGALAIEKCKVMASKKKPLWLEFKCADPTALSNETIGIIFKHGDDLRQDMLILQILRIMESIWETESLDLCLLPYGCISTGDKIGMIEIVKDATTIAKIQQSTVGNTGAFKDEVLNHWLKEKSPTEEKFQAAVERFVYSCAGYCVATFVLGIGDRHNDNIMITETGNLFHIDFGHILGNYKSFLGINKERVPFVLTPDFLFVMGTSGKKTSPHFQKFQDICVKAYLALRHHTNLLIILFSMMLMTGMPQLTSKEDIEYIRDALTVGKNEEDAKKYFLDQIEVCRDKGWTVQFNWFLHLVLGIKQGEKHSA
Chain of Human mTOR (FLAG-TOR) (P42345 1360-2549 limits assumed): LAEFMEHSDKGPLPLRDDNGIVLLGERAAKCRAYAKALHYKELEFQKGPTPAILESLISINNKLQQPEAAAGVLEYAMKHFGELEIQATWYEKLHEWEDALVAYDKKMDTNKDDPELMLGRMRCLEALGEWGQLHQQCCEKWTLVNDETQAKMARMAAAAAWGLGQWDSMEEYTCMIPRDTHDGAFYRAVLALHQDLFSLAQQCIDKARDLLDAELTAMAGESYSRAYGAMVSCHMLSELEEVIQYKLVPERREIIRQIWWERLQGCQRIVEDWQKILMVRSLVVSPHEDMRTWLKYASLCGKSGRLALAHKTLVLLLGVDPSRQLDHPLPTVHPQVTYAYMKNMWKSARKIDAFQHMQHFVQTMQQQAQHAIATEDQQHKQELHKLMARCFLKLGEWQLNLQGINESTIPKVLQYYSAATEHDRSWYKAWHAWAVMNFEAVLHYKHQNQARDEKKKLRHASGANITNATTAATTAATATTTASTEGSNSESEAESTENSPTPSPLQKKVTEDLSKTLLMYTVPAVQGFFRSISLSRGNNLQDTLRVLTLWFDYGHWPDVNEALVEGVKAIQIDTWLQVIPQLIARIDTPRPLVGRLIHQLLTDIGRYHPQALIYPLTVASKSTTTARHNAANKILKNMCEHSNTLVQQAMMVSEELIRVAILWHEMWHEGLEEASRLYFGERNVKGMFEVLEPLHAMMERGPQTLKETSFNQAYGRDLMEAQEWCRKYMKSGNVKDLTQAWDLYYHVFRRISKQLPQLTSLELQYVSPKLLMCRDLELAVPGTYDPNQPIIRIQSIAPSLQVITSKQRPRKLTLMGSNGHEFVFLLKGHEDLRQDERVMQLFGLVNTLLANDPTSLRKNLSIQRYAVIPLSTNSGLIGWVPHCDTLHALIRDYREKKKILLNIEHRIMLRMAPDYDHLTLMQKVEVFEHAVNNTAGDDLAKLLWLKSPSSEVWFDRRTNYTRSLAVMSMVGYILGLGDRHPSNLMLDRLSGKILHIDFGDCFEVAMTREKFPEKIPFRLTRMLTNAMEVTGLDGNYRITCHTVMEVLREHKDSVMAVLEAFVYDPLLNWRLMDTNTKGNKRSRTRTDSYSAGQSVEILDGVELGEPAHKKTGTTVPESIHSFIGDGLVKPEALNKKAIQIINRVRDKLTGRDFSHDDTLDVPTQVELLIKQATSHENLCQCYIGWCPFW
Chain of PI3K-α (P42336 whole entry, species assumed): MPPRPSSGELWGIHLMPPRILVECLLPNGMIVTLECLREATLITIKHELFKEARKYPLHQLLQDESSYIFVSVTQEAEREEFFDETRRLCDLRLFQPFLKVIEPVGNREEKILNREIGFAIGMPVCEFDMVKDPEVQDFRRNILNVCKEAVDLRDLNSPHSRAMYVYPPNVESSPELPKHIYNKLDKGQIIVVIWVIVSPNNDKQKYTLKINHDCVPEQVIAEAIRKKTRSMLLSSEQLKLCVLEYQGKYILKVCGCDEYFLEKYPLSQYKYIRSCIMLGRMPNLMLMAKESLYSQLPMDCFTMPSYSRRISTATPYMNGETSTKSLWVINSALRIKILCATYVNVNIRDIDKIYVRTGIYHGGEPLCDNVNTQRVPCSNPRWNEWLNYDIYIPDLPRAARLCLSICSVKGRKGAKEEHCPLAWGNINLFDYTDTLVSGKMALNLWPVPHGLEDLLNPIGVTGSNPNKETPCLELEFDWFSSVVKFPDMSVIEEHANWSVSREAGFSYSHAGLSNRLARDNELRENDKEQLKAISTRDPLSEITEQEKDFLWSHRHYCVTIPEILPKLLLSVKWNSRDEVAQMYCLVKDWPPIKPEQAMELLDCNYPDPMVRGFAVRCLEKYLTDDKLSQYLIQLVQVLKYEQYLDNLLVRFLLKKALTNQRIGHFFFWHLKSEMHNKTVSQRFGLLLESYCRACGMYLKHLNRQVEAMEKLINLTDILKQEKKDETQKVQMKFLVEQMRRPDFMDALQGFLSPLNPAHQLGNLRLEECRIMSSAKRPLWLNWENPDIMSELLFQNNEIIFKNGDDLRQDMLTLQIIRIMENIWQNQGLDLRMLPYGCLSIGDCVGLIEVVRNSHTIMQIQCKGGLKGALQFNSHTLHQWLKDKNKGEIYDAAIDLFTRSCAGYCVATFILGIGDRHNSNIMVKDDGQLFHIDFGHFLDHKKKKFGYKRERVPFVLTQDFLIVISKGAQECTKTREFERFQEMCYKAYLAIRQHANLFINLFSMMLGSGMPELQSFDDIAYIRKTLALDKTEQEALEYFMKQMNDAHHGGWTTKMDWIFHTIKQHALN
Chain of PI3K-α (P27986 whole entry partner, species assumed): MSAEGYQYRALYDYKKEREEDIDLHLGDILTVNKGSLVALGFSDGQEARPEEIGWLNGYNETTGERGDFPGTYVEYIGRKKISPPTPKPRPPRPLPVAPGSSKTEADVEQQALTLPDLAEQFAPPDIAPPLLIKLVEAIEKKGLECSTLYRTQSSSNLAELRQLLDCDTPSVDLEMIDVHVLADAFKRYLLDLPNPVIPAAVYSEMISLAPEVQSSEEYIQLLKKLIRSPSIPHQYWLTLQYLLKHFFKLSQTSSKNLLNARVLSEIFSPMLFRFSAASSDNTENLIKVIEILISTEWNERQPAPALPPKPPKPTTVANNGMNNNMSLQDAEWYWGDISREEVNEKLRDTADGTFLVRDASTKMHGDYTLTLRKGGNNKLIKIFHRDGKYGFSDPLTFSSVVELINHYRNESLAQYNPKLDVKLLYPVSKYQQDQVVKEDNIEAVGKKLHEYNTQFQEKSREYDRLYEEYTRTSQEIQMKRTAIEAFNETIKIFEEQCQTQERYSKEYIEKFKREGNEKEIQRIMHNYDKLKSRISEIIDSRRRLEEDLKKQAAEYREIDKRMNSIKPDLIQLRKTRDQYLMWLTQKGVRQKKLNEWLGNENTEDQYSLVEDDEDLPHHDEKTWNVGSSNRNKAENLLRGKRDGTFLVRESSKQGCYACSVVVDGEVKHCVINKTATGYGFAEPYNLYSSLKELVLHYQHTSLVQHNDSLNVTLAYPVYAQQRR

Turning to `COC(=O)c1ccc(NC(=O)Nc2ccc(-c3nc(N4CCOCC4)nc(N4CCOC[C@@H]4C)n3)cc2)cc1` [Example 615, methyl 4-{[(4-{4-[(3S)-3-methylmorpholin-4-yl]-6-morpholin-4-yl-1,3,5-triazin-2-yl}phenyl)carbamoyl]amino}benzoate], the IC50 at PI3K-α came out at 26.5 nM; in assay [1] (72 h), 88 nM; at PI3K-γ, 116 nM; in assay [2], 123 nM; on Human mTOR (FLAG-TOR), 1 nM.

In the case of `C[C@H]1COCCN1c1nc(-c2ccc(NC(=O)Nc3ccc(C(=O)N4CCC(N(C)C)CC4)cc3)cc2)nc(N2CCOC[C@@H]2C)n1` [Example 616, 1-(4-{4,6-bis[(3S)-3-methylmorpholin-4-yl]-1,3,5-triazin-2-yl}phenyl)-3-(4-{[4-(dimethylamino)piperidin-1-yl]carbonyl}phenyl)urea], the IC50 on PI3K-α was 4 nM; in assay [1] (MDA-MB-361, 72 h), 4 nM; at PI3K-γ, 58.5 nM; in assay [2] it was 21 nM; on Human mTOR (FLAG-TOR), 1 nM.

Turning to `C[C@H]1COCCN1c1nc(-c2ccc(NC(=O)Nc3ccc(C(=O)N4CCN(C)CC4)cc3)cc2)nc(N2CCOCC2)n1` [Example 617, 1-(4-{4-[(3S)-3-methylmorpholin-4-yl]-6-morpholin-4-yl-1,3,5-triazin-2-yl}phenyl)-3-{4-[(4-methylpiperazin-1-yl)carbonyl]phenyl}urea], the half-inhibitory concentration (IC50) was found to be 2.5 nM on PI3K-α; 4 nM in assay [1] (MDA-MB-361, 72 h); 27 nM on PI3K-γ; 17 nM in assay [2]; 1 nM on Human mTOR (FLAG-TOR).

With `CC(C)N1CCN(C(=O)c2ccc(NC(=O)Nc3ccc(-c4nc(N5CCOCC5)nc(N5CCOC[C@@H]5C)n4)cc3)cc2)CC1` [Example 618, 1-(4-{[4-(1-methylethyl)piperazin-1-yl]carbonyl}phenyl)-3-(4-{4-[(3S)-3-methylmorpholin-4-yl]-6-morpholin-4-yl-1,3,5-triazin-2-yl}phenyl)urea], the IC50 at PI3K-α turned out to be 2 nM; in assay [1] (MDA-MB-361, 72 h), 2 nM; on PI3K-γ, 18.5 nM; in assay [2], 13 nM; at Human mTOR (FLAG-TOR), 1 nM.

Turning to `CCN1CCN(C(=O)c2ccc(NC(=O)Nc3ccc(-c4nc(N5CCOCC5)nc(N5CCOC[C@@H]5C)n4)cc3)cc2)CC1` [Example 620, 1-{4-[(4-ethylpiperazin-1-yl)carbonyl]phenyl}-3-(4-{4-[(3S)-3-methylmorpholin-4-yl]-6-morpholin-4-yl-1,3,5-triazin-2-yl}phenyl)urea], the IC50 at PI3K-α came to 4 nM; in assay [1] (MDA-MB-361, 72 h), 4 nM; at PI3K-γ, 32.5 nM; in assay [2], 16 nM; at Human mTOR (FLAG-TOR), 3 nM.

For the molecule `C[C@H]1COCCN1c1nc(-c2ccc(NC(=O)Nc3ccc(C(=O)NCCCN(C)C)cc3)cc2)nc(N2CCOCC2)n1` [Example 621, N-[3-(dimethylamino)propyl]-4-{[(4-{4-[(3S)-3-methylmorpholin-4-yl]-6-morpholin-4-yl-1,3,5-triazin-2-yl}phenyl)carbamoyl]amino}benzamide], the IC50 at PI3K-α turned out to be 3.5 nM; in assay [1] (72 h), 8 nM; on PI3K-γ, 43.5 nM; in assay [2] it was 35 nM; at Human mTOR (FLAG-TOR) it was 1 nM.

For the molecule `C[C@@H]1COCCN1c1nc(-c2ccc(NC(=O)Nc3ccc(C(=O)N4CCN(C)CC4)cc3)cc2)nc(N2CCOC[C@@H]2C)n1` [Example 623, 1-(4-{4-[(3R)-3-methylmorpholin-4-yl]-6-[(3S)-3-methylmorpholin-4-yl]-1,3,5-triazin-2-yl}phenyl)-3-{4-[(4-methylpiperazin-1-yl)carbonyl]phenyl}urea], the IC50 on PI3K-α was 12.5 nM; in assay [1] (72 h), 6 nM; on PI3K-γ it was 104 nM; in assay [2], 32 nM; at Human mTOR (FLAG-TOR), 1 nM.

For `CCCN(CCC)C1CCN(C(=O)c2ccc(NC(=O)Nc3ccc(-c4nc(N5CCOC[C@@H]5C)nc(N5CCOC[C@@H]5C)n4)cc3)cc2)CC1` [Example 624, 1-(4-{4,6-bis[(3S)-3-methylmorpholin-4-yl]-1,3,5-triazin-2-yl}phenyl)-3-(4-{[4-(dipropylamino)piperidin-1-yl]carbonyl}phenyl)urea], the IC50 turned out to be 17.5 nM at PI3K-α; 4 nM in assay [1] (MDA-MB-361, 72 h); 58.5 nM on PI3K-γ; 19 nM in assay [2]; 1 nM at Human mTOR (FLAG-TOR).

For `CCN1CCN(C(=O)c2ccc(NC(=O)Nc3ccc(-c4nc(N5CCOC[C@H]5C)nc(N5CCOC[C@@H]5C)n4)cc3)cc2)CC1` [Example 625, 1-{4-[(4-ethylpiperazin-1-yl)carbonyl]phenyl}-3-(4-{4-[(3R)-3-methylmorpholin-4-yl]-6-[(3S)-3-methylmorpholin-4-yl]-1,3,5-triazin-2-yl}phenyl)urea], the IC50 at PI3K-α is 16.5 nM; in assay [1] (72 h) it was 12 nM; on PI3K-γ, 102 nM; in assay [2], 43 nM; at Human mTOR (FLAG-TOR), 3 nM.

As for `CCCCN1CCN(C(=O)c2ccc(NC(=O)Nc3ccc(-c4nc(N5CCOC[C@H]5C)nc(N5CCOC[C@@H]5C)n4)cc3)cc2)CC1` [Example 627, 1-{4-[(4-butylpiperazin-1-yl)carbonyl]phenyl}-3-(4-{4-[(3R)-3-methylmorpholin-4-yl]-6-[(3S)-3-methylmorpholin-4-yl]-1,3,5-triazin-2-yl}phenyl)urea], the IC50 turned out to be 18.5 nM at PI3K-α; 16 nM in assay [1] (72 h); 102 nM at PI3K-γ; 55 nM in assay [2]; 2 nM at Human mTOR (FLAG-TOR).

`CCCCN1CCN(C(=O)c2ccc(NC(=O)Nc3ccc(-c4nc(N5CCOC[C@@H]5C)nc(N5CCOC[C@@H]5C)n4)cc3)cc2)CC1` [Example 629, 1-(4-{4,6-bis[(3S)-3-methylmorpholin-4-yl]-1,3,5-triazin-2-yl}phenyl)-3-{4-[(4-butylpiperazin-1-yl)carbonyl]phenyl}urea]: the IC50 is 26 nM on PI3K-α; 28 nM in assay [1] (72 h); 95 nM on PI3K-γ; 133 nM in assay [2]; 4 nM on Human mTOR (FLAG-TOR).

Take `CC(C)N1CCN(C(=O)c2ccc(NC(=O)Nc3ccc(-c4nc(N5CCOC[C@H]5C)nc(N5CCOC[C@@H]5C)n4)cc3)cc2)CC1` [Example 630, 1-(4-{[4-(1-methylethyl)piperazin-1-yl]carbonyl}phenyl)-3-(4-{4-[(3R)-3-methylmorpholin-4-yl]-6-[(3S)-3-methylmorpholin-4-yl]-1,3,5-triazin-2-yl}phenyl)urea]: the IC50 at PI3K-α was 13.5 nM; in assay [1] (72 h) it was 5 nM; on PI3K-γ, 84.5 nM; in assay [2] it was 23 nM; on Human mTOR (FLAG-TOR), 1 nM.

On to `CC(C)CN1CCN(C(=O)c2ccc(NC(=O)Nc3ccc(-c4nc(N5CCOC[C@@H]5C)nc(N5CCOC[C@@H]5C)n4)cc3)cc2)CC1` [Example 631, 1-(4-{4,6-bis[(3S)-3-methylmorpholin-4-yl]-1,3,5-triazin-2-yl}phenyl)-3-(4-{[4-(2-methylpropyl)piperazin-1-yl]carbonyl}phenyl)urea], for which the IC50 at PI3K-α turned out to be 28 nM; in assay [1] (72 h), 28 nM; on PI3K-γ, 133 nM; in assay [2] it was 120 nM; at Human mTOR (FLAG-TOR), 4 nM.

As for `CCC(C)N1CCN(C(=O)c2ccc(NC(=O)Nc3ccc(-c4nc(N5CCOC[C@@H]5C)nc(N5CCOC[C@@H]5C)n4)cc3)cc2)CC1` (stereo partly drawn) [Example 632, 1-(4-{4,6-bis[(3S)-3-methylmorpholin-4-yl]-1,3,5-triazin-2-yl}phenyl)-3-(4-{[4-(1-methylpropyl)piperazin-1-yl]carbonyl}phenyl)urea], the IC50 turned out to be 15 nM on PI3K-α; 9 nM in assay [1] (72 h); 74.5 nM at PI3K-γ; 38 nM in assay [2]; 1 nM on Human mTOR (FLAG-TOR).

In the case of `C[C@H]1COCCN1c1nc(-c2ccc(NC(=O)Nc3ccc(C(=O)NCCN4CCN(C)CC4)cc3)cc2)nc(N2CCOC[C@@H]2C)n1` [Example 633, 4-{[(4-{4,6-bis[(3S)-3-methylmorpholin-4-yl]-1,3,5-triazin-2-yl}phenyl)carbamoyl]amino}-N-[2-(4-methylpiperazin-1-yl)ethyl]benzamide], the IC50 turned out to be 11.5 nM on PI3K-α; 15 nM in assay [1] (72 h); 175 nM on PI3K-γ; 64 nM in assay [2]; 1 nM on Human mTOR (FLAG-TOR).

For `C[C@H]1COCCN1c1nc(-c2ccc(NC(=O)Nc3ccc(C(=O)N4CCCCC4)cc3)cc2)nc(N2CCOC[C@@H]2C)n1` [Example 637, 1-(4-{4,6-bis[(3S)-3-methylmorpholin-4-yl]-1,3,5-triazin-2-yl}phenyl)-3-[4-(piperidin-1-ylcarbonyl)phenyl]urea], the IC50 on PI3K-α turned out to be 21.5 nM; in assay [1] (MDA-MB-361, 72 h), 26 nM; on PI3K-γ, 190 nM; in assay [2], 62 nM; on Human mTOR (FLAG-TOR), 4 nM.

On to `CCCN1CCN(C(=O)c2ccc(NC(=O)Nc3ccc(-c4nc(N5CCOC[C@@H]5C)nc(N5CCOC[C@@H]5C)n4)cc3)cc2)CC1` [Example 638, 1-(4-{4,6-bis[(3S)-3-methylmorpholin-4-yl]-1,3,5-triazin-2-yl}phenyl)-3-{4-[(4-propylpiperazin-1-yl)carbonyl]phenyl}urea], for which the IC50 on PI3K-α was 16 nM; in assay [1] (72 h), 9 nM; on PI3K-γ it was 114 nM; in assay [2] it was 44 nM; at Human mTOR (FLAG-TOR) it was 2 nM.
